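The concentration for 50% growth inhibition is given as GI50. Definition used: TGI = concentration required for complete inhibition of growth.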
Tests used:
Experiment in all cases: NCI tumour cell line growth inhibition, 384-well format
[1] = test system: BT-549 breast
[2] = test system: NCI-H23 lung
[3] = test system: HL-60(TB) leukemia
[4] = test system: SK-MEL-28 melanoma
[5] = test system: SF-268 CNS
[6] = test system: MALME-3M melanoma
[7] = test system: UO-31 renal
[8] = test system: NCI/ADR-RES ovarian
[9] = test system: SF-295 CNS
[10] = test system: A498 renal
[11] = test system: MOLT-4 leukemia
[12] = test system: CCRF-CEM leukemia
[13] = test system: KM12 colon
[14] = test system: NCI-H322M lung
[15] = test system: OVCAR-3 ovarian
[16] = test system: OVCAR-5 ovarian
[17] = test system: HCT-116 colon
[18] = test system: RXF 393 renal
[19] = test system: K-562 leukemia
[20] = test system: NCI-H460 NSCLC
[21] = test system: SW-620 colon
[22] = test system: OVCAR-4 ovarian
[23] = test system: SR leukemia
[24] = test system: HT29 colon
[25] = test system: SNB-19 CNS
[26] = test system: MCF7 breast
[27] = test system: 786-0 renal
[28] = test system: DU-145 prostate
[29] = test system: NCI-H226 lung
[30] = test system: COLO 205 colon
[31] = test system: MDA-MB-231 breast
[32] = test system: NCI-H522 lung
[33] = test system: HOP-92 NSCLC
[34] = test system: IGROV1 ovarian
[35] = test system: HS 578T breast
[36] = test system: SNB-75 CNS
[37] = test system: ACHN renal
[38] = test system: PC-3 prostate
[39] = test system: T-47D breast
[40] = test system: LOX IMVI melanoma
[41] = test system: MDA-MB-468 breast
[42] = test system: EKVX NSCLC
[43] = test system: TK-10 renal
[44] = test system: OVCAR-8 ovarian
[45] = test system: HCC-2998 colon
[46] = test system: M14 melanoma
[47] = test system: RPMI-8226 leukemia
[48] = test system: SF-539 CNS
[49] = test system: U251 glioblastoma
[50] = test system: SN12C renal
[51] = test system: A549 NSCLC
[52] = test system: SK-MEL-5 melanoma
[53] = test system: HCT-15 colon
[54] = test system: HOP-62 NSCLC

CC(C)(C)c1nc(-c2cccc(NS(=O)(=O)c3c(F)cccc3F)c2F)c(-c2ccnc(N)n2)s1
GI50 [1]: 42.7 µM | TGI [1]: 70.1 µM | GI50 [2]: 13.7 µM | TGI [2]: 52.3 µM | GI50 [3]: 3.98 µM | TGI [3]: 27.3 µM | GI50 [4]: < 0.01 µM | GI50 [5]: 42.3 µM | TGI [5]: > 84.5 µM | GI50 [6]: < 0.01 µM | GI50 [7]: 16.6 µM | TGI [7]: > 100 µM | GI50 [8]: 22.6 µM | TGI [8]: 53.8 µM | GI50 [9]: 48.1 µM | TGI [9]: > 100 µM | GI50 [10]: 60 µM | TGI [10]: > 94.6 µM | GI50 [11]: 6.59 µM | TGI [11]: 24.3 µM | GI50 [12]: 14.4 µM | TGI [12]: > 44.1 µM | GI50 [13]: 27.7 µM | TGI [13]: > 70.9 µM | GI50 [14]: 23 µM | TGI [14]: 69.8 µM | GI50 [15]: 34.1 µM | TGI [15]: 60.8 µM | GI50 [16]: 23.8 µM | TGI [16]: > 85.2 µM | GI50 [17]: 11.7 µM | TGI [17]: > 66.4 µM | GI50 [18]: 50.5 µM | TGI [18]: > 81.6 µM | GI50 [19]: 4.59 µM | TGI [19]: 20.7 µM | GI50 [20]: 29.3 µM | TGI [20]: > 75.7 µM | GI50 [21]: 32.4 µM | TGI [21]: > 77.4 µM | GI50 [22]: 24.9 µM | TGI [22]: 52 µM | GI50 [23]: 6.62 µM | TGI [23]: 23.8 µM | GI50 [24]: 0.0124 µM | TGI [24]: > 58.4 µM | GI50 [25]: 48.7 µM | TGI [25]: > 100 µM | GI50 [26]: 25.3 µM | TGI [26]: 62.6 µM | GI50 [27]: 43.8 µM | TGI [27]: > 100 µM | GI50 [28]: 14.9 µM | TGI [28]: 41.6 µM | GI50 [29]: 22.1 µM | TGI [29]: 67 µM | GI50 [30]: < 0.01 µM | GI50 [31]: 15 µM | TGI [31]: 37.4 µM | GI50 [32]: 7.22 µM | TGI [32]: 41 µM | GI50 [33]: 50 µM | TGI [33]: > 94 µM | GI50 [34]: 7.65 µM | TGI [34]: > 52.6 µM | GI50 [35]: 33 µM | TGI [35]: > 75.9 µM | GI50 [36]: > 62.8 µM | TGI [36]: > 81.3 µM | GI50 [37]: 0.183 µM | TGI [37]: > 100 µM | GI50 [38]: 48.9 µM | TGI [38]: > 93.6 µM | GI50 [39]: 41.5 µM | TGI [39]: > 100 µM | GI50 [40]: 1.28 µM | TGI [40]: > 63.8 µM | GI50 [41]: 28.6 µM | TGI [41]: 57.7 µM | GI50 [42]: 26.6 µM | TGI [42]: 59.6 µM | GI50 [43]: 11.7 µM | TGI [43]: > 60.7 µM | GI50 [44]: 44.3 µM | TGI [44]: 89 µM | GI50 [45]: 34.8 µM | TGI [45]: > 74.7 µM | GI50 [46]: < 0.01 µM | TGI [46]: < 0.017 µM | GI50 [47]: 5.83 µM | TGI [47]: 19.7 µM | GI50 [48]: 49.7 µM | TGI [48]: > 94.2 µM | GI50 [49]: 53.8 µM | TGI [49]: > 100 µM | GI50 [50]: 38.4 µM | TGI [50]: > 100 µM | GI50 [51]: 20.2 µM | TGI [51]: 72.5 µM | GI50 [52]: < 0.01 µM | TGI [52]: > 100 µM | GI50 [53]: 26 µM | TGI [53]: > 74.4 µM | GI50 [54]: 55.5 µM | TGI [54]: > 100 µM

— PubChem BioAssay (NCI)
